Here are results for 13 compounds from the supplement of paper PMC10702517.

Data set [1] is described as follows: chemical recovery into PDMS from spiked human plasma; higher = better extraction. Conditions: pooled human plasma, extraction method: PES with PDMS.
Data set [2] is described as follows: chemical recovery by SPE of plasma after PDMS sampling; higher = better extraction. Conditions: pooled human plasma, extraction method: HLB SPE of plasma after PES.
Data set [3] in a line: chemical recovery from spiked human plasma; higher = better extraction. Conditions: pooled human plasma.
Setting [4] is: extraction method: SPE only (HLB 96-well), PES comparison experiment.
Where [5] appears, read: extraction method: PES+SPE (3 d PDMS equilibration then HLB SPE).
[6] abbreviates: extraction method: SPE only (HLB 96-well).
The mark [7] stands for this setting: extraction method: solvent precipitation (ACN + hexane).

Each structure is given as a SMILES string. ± gives the standard deviation.
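Throughout, for chemical recovery by SPE of plasma after PDMS sampling: over 400 spiked chemicals quantified by LC-HRMS or GC-HRMS via internal standard calibration, recovery relative to spike mix added to unspiked plasma extract to correct matrix effects.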

With `CC(=O)[C@@]1(O)CC[C@H]2[C@@H]3C[C@H](C)C4=CC(=O)CC[C@]4(C)[C@H]3CC[C@@]21C` [Medroxyprogesterone], the results for the “chemical recovery into PDMS” value in data set [1] (equilibration time (d): 1), in data set [1] (equilibration time (d): 3) and in data set [1] (equilibration time (d): 6) were 40.5 ± 2.4%, 46.2 ± 3.4% and 44.5 ± 6.2%, respectively. Also, the “chemical recovery by SPE of plasma” value in data set [2] (equilibration time (d): 6) is 1.02 ± 1.8%. In addition, in data set [3] (setting [4]), the chemical recovery stood at 47.7 ± 7%.
Regarding `CC12CC3CC(C)(C1)CC(N)(C3)C2` [Memantine], the “chemical recovery into PDMS” value in data set [1] (equilibration time (d): 1) was found to be 3.61 ± 1.9%; in data set [1] (equilibration time (d): 3), 4.46 ± 2.7%; in data set [1] (equilibration time (d): 6) it was 3.08 ± 2.4%. Also, the “chemical recovery by SPE of plasma” value in data set [2] (equilibration time (d): 1) is 6.36 ± 0.42%; in data set [2] (equilibration time (d): 3) it was 7.03 ± 1.2%; in data set [2] (equilibration time (d): 6), 5.53 ± 0.96%. The chemical recovery in data set [3] (setting [5]) was 14.8 ± 4.7%; in data set [3] (setting [6]) it was 46.6 ± 1.4%; in data set [3] (setting [4]) it was 45.1 ± 6.8%; in data set [3] (setting [7]) it was 47.1 ± 4.5%.
Turning to `COCC(=O)N(c1c(C)cccc1C)C(C)C(=O)OC` (stereo not drawn) [Metalaxyl], the figures for the “chemical recovery into PDMS” value in data set [1] (equilibration time (d): 1), in data set [1] (equilibration time (d): 3) and in data set [1] (equilibration time (d): 6) were 33.1 ± 0.4%, 36.7 ± 3.2% and 36.9 ± 0.38%, respectively. For the same compound, the “chemical recovery by SPE of plasma” value in data set [2] (equilibration time (d): 1) came out at 5.41 ± 0.46%; in data set [2] (equilibration time (d): 3), 5.16 ± 0.64%; in data set [2] (equilibration time (d): 6), 0.955 ± 1.6%. Moreover, the chemical recovery in data set [3] (setting [4]) was 50.3 ± 7.6%; in data set [3] (setting [7]), 70.2 ± 2.1%.
Take `Cc1cccc(C)c1N(Cn1cccn1)C(=O)C[S+](C)[O-]` (stereo not drawn) [Metazachlor BH 479-11]: the results for the “chemical recovery into PDMS” value in data set [1] (equilibration time (d): 1), in data set [1] (equilibration time (d): 3) and in data set [1] (equilibration time (d): 6) were 5.75 ± 0.43%, 9.79 ± 2.3% and 11.1 ± 1.1%, respectively. Besides, the “chemical recovery by SPE of plasma” value in data set [2] (equilibration time (d): 1) amounted to 59.7 ± 9%; in data set [2] (equilibration time (d): 3) it was 57.3 ± 4.7%; in data set [2] (equilibration time (d): 6), 49.7 ± 6.9%. In addition, the chemical recovery in data set [3] (setting [5]) amounted to 46 ± 4.5%; in data set [3] (setting [6]), 50.3 ± 0.97%; in data set [3] (setting [4]), 51.8 ± 4.5%; in data set [3] (setting [7]), 68.7 ± 3.1%.
For the compound `Cc1cccc(C)c1N(Cn1cccn1)C(=O)C(=O)O` [Metazachlor OA], in data set [1] (equilibration time (d): 6), the “chemical recovery into PDMS” value was 0.0244 ± 0.042%. The “chemical recovery by SPE of plasma” value in data set [2] (equilibration time (d): 1) turned out to be 56.9 ± 8.4%; in data set [2] (equilibration time (d): 3), 63.4 ± 2.8%; in data set [2] (equilibration time (d): 6), 57.2 ± 4.4%. This compound also registered a chemical recovery in data set [3] (setting [4]) of 50.4 ± 3.9%.
For `Cc1cccc(C)c1N(Cn1cccn1)C(=O)CCl` [Metazachlor], the “chemical recovery into PDMS” value was 40.1 ± 1.9% in data set [1] (equilibration time (d): 1), 42.9 ± 2.5% in data set [1] (equilibration time (d): 3) and 42.7 ± 2.1% in data set [1] (equilibration time (d): 6). The “chemical recovery by SPE of plasma” value was found to be 1.5 ± 0.11% in data set [2] (equilibration time (d): 1), 1.57 ± 0.29% in data set [2] (equilibration time (d): 3) and 0.82 ± 0.13% in data set [2] (equilibration time (d): 6). The chemical recovery in data set [3] (setting [5]) is 42.8 ± 5%; in data set [3] (setting [6]), 38.6 ± 2.5%; in data set [3] (setting [4]) it was 53.5 ± 7.4%; in data set [3] (setting [7]), 66.2 ± 2.7%.
With `CC1(C)CCC(Cc2ccc(Cl)cc2)C1(O)Cn1cncn1` (stereo not drawn) [Metconazole], the “chemical recovery into PDMS” value in data set [1] (equilibration time (d): 1) was determined as 39.4 ± 2.5%; in data set [1] (equilibration time (d): 3), 41.9 ± 2.7%; in data set [1] (equilibration time (d): 6), 41.91 ± 0.15%. In addition, the “chemical recovery by SPE of plasma” value is 2.06 ± 0.36% in data set [2] (equilibration time (d): 1), 1.76 ± 0.4% in data set [2] (equilibration time (d): 3) and 1.11 ± 0.42% in data set [2] (equilibration time (d): 6). Moreover, the chemical recovery came out at 46.3 ± 8.6% in data set [3] (setting [4]) and 74.3 ± 3.4% in data set [3] (setting [7]).
Take `Cc1cc(O)cc(C)c1[S+](C)[O-]` (stereo not drawn) [Methiocarb-sulfoxide phenol]: the figures for the “chemical recovery into PDMS” value in data set [1] (equilibration time (d): 1), in data set [1] (equilibration time (d): 3) and in data set [1] (equilibration time (d): 6) were 18.7 ± 0.39%, 20.6 ± 0.91% and 20.7 ± 1.2%, respectively. Besides, the “chemical recovery by SPE of plasma” value in data set [2] (equilibration time (d): 1) worked out at 66.4 ± 8.3%; in data set [2] (equilibration time (d): 3), 66.7 ± 4.1%; in data set [2] (equilibration time (d): 6), 61.6 ± 2.4%. In addition, the results for the chemical recovery in data set [3] (setting [6]), in data set [3] (setting [4]) and in data set [3] (setting [7]) were 45.3 ± 8.7%, 54.3 ± 6.8% and 78.8 ± 5.1%, respectively.
For the compound `Cn1ncc(N)c(Cl)c1=O` [Methyldesphenylchloridazon], the “chemical recovery into PDMS” value was 1.07 ± 0.26% in data set [1] (equilibration time (d): 1), 1.44 ± 0.31% in data set [1] (equilibration time (d): 3) and 1.24 ± 1.1% in data set [1] (equilibration time (d): 6). In addition, the “chemical recovery by SPE of plasma” value was determined as 24.3 ± 8.3% in data set [2] (equilibration time (d): 1), 21.3 ± 7.1% in data set [2] (equilibration time (d): 3) and 25 ± 8.3% in data set [2] (equilibration time (d): 6). In addition, in data set [3] (setting [4]), the chemical recovery was 35.8 ± 1.2%.
Consider `CS(=O)(=O)c1ccccc1` [Methylphenylsulfone], for which the “chemical recovery into PDMS” value in data set [1] (equilibration time (d): 1) worked out at 94.1 ± 26%; in data set [1] (equilibration time (d): 3), 98.5 ± 33%; in data set [1] (equilibration time (d): 6), 100 ± 28%. In addition, the “chemical recovery by SPE of plasma” value in data set [2] (equilibration time (d): 3) worked out at 104 ± 9.2%. Also, the chemical recovery in data set [3] (setting [6]) is 19.9 ± 3.2%; in data set [3] (setting [7]), 68 ± 24%.
For the compound `CCc1cccc(C)c1N(C(=O)C(=O)O)C(C)COC` (stereo not drawn) [Metolachlor OA], the “chemical recovery into PDMS” value in data set [1] (equilibration time (d): 1) is 19 ± 0.56%; in data set [1] (equilibration time (d): 3) it was 21.5 ± 1.7%; in data set [1] (equilibration time (d): 6), 21 ± 0.44%. Also, the “chemical recovery by SPE of plasma” value in data set [2] (equilibration time (d): 1) amounted to 32.4 ± 6.7%; in data set [2] (equilibration time (d): 6), 30.3 ± 2.7%. For the same compound, the chemical recovery is 40.1 ± 4.2% in data set [3] (setting [5]), 35.7 ± 1.4% in data set [3] (setting [6]), 54.1 ± 5.2% in data set [3] (setting [4]) and 73.7 ± 3.3% in data set [3] (setting [7]).
As for `CCc1cccc(C)c1N(C(=O)CS(=O)(=O)O)[C@@H](C)C(=O)O` [Metolachlor-NOA 413-173], the results for the “chemical recovery into PDMS” value in data set [1] (equilibration time (d): 1), in data set [1] (equilibration time (d): 3) and in data set [1] (equilibration time (d): 6) were 1.97 ± 4.4%, 9.48 ± 1.4% and 7.51 ± 7%, respectively. Moreover, the entries for the “chemical recovery by SPE of plasma” value in data set [2] (equilibration time (d): 3) and in data set [2] (equilibration time (d): 6) were 27.8 ± 9.2% and 34.7 ± 5.3%, respectively. Further, the values for the chemical recovery in data set [3] (setting [6]) and in data set [3] (setting [4]) were 35.6 ± 3.7% and 22.7 ± 9.6%, respectively.
In the case of `CCc1cccc(C)c1N(C(=O)CCl)C(C)COC` (stereo not drawn) [Metolachlor], the “chemical recovery into PDMS” value in data set [1] (equilibration time (d): 1) stood at 37.3 ± 1.4%; in data set [1] (equilibration time (d): 3), 40.7 ± 3.2%; in data set [1] (equilibration time (d): 6) it was 40.6 ± 1.1%. Besides, the “chemical recovery by SPE of plasma” value in data set [2] (equilibration time (d): 1) came out at 0.504 ± 0.043%; in data set [2] (equilibration time (d): 3), 0.63 ± 0.12%; in data set [2] (equilibration time (d): 6) it was 0.323 ± 0.0041%. In addition, the figures for the chemical recovery in data set [3] (setting [5]), in data set [3] (setting [6]) and in data set [3] (setting [4]) were 37.9 ± 5.3%, 38.1 ± 1.9% and 47.6 ± 6.7%, respectively.
